Measured values as given in ChEMBL document CHEMBL3885861, “Open TG-GATES”.

Species on record: Rattus norvegicus
Experiment: Open TG-GATES - Regimen: Single
Type: toxicity, organism-based, Sprague-Dawley
Set-up: regimen Single, gender Male, age 6 weeks
Settings: in vivo, iv, 12 mg/kg, route intravenous injection, dose level Low; for APTT / Bas / Eos / Fbg / Hb / Ht / Lym / MCH / MCHC / MCV / Mono / Neu / PT / Plat / RBC / Ret / WBC: tissue Blood; for KIDNEY_L / KIDNEY_R / KIDNEY_TOTAL: tissue Kidney; for LIVER: tissue Liver; for A/G / ALP / ALT / AST / BUN / CRE / Ca / Cl / DBIL / GLC / IP / K / LDH / Na / PL / RALB / TBIL / TC / TG / TP / gamma-GTP: tissue Plasma

Q: What does the source list for `CN(C)c1ncnc2c1ncn2[C@@H]1O[C@H](CO)[C@@H](N)[C@H]1O` [PUROMYCIN AMINONUCLEOSIDE]?
A: TERMINAL_BW (3 h): 215.3 g; APTT (3 h): 22.9 s; Bas (3 h): 0%; Eos (3 h): 0.8%; Fbg (3 h): 276 mg/dL; Hb (3 h): 13.1 g/dL; Ht (3 h): 38.5%; Lym (3 h): 69.6%; MCH (3 h): 21.4 pg; MCHC (3 h): 33.9%; MCV (3 h): 63.1 fL; Mono (3 h): 4%; Neu (3 h): 24.4%; PT (3 h): 16 s; Plat (3 h): 119.9 x10_4/uL; RBC (3 h): 611.4 x10_4/ul; Ret (3 h): 6.4%; WBC (3 h): 112.8 x10_2/uL; KIDNEY_L (3 h): 1 g; KIDNEY_R (3 h): 1 g; KIDNEY_TOTAL (3 h): 1.9 g; LIVER (3 h): 10 g; A/G (3 h): 1.3; ALP (3 h): 1670.4 IU/L; ALT (3 h): 45.2 IU/L; AST (3 h): 76.6 IU/L; BUN (3 h): 13.6 mg/dL; CRE (3 h): 0.2 mg/dL; Ca (3 h): 11 mg/dL; Cl (3 h): 105.6 meq/L; DBIL (3 h): 0 mg/dL; GLC (3 h): 181.6 mg/dL; IP (3 h): 7.8 mg/dL; K (3 h): 4.2 meq/L; LDH (3 h): 180.2 IU/L; Na (3 h): 141.4 meq/L; PL (3 h): 143.4 mg/dL; RALB (3 h): 3 g/dL; TBIL (3 h): 0.02 mg/dL; TC (3 h): 73.2 mg/dL; TG (3 h): 72.4 mg/dL; TP (3 h): 5.4 g/dL; gamma-GTP (3 h): 1 IU/L; TERMINAL_BW (6 h): 208.1 g; APTT (6 h): 22.9 s; Bas (6 h): 0%; Eos (6 h): 0.8%; Fbg (6 h): 316.4 mg/dL; Hb (6 h): 13.1 g/dL; Ht (6 h): 39.2%; Lym (6 h): 72.8%; MCH (6 h): 20.5 pg; MCHC (6 h): 33.5%; MCV (6 h): 61 fL; Mono (6 h): 3.2%; Neu (6 h): 22.2%; PT (6 h): 15.9 s; Plat (6 h): 119.1 x10_4/uL; RBC (6 h): 643 x10_4/ul; Ret (6 h): 6.5%; WBC (6 h): 104.4 x10_2/uL; KIDNEY_L (6 h): 0.9 g; KIDNEY_R (6 h): 0.9 g; KIDNEY_TOTAL (6 h): 1.8 g; LIVER (6 h): 8.9 g; A/G (6 h): 1.3; ALP (6 h): 1246 IU/L; ALT (6 h): 37.4 IU/L; AST (6 h): 71.2 IU/L; BUN (6 h): 11.6 mg/dL; CRE (6 h): 0.1 mg/dL; Ca (6 h): 11.1 mg/dL; Cl (6 h): 105.6 meq/L; DBIL (6 h): 0 mg/dL; GLC (6 h): 182.4 mg/dL; IP (6 h): 9 mg/dL; K (6 h): 4.3 meq/L; LDH (6 h): 153.4 IU/L; Na (6 h): 140.4 meq/L; PL (6 h): 136.8 mg/dL; RALB (6 h): 3 g/dL; TBIL (6 h): 0.026 mg/dL; TC (6 h): 71.4 mg/dL; TG (6 h): 83 mg/dL; TP (6 h): 5.5 g/dL; gamma-GTP (6 h): 1.2 IU/L; TERMINAL_BW (9 h): 212.5 g; APTT (9 h): 21.5 s; Bas (9 h): 0%; Eos (9 h): 1%; Fbg (9 h): 306.4 mg/dL; Hb (9 h): 12.5 g/dL; Ht (9 h): 37.4%; Lym (9 h): 75%; MCH (9 h): 20.6 pg; MCHC (9 h): 33.5%; MCV (9 h): 61.7 fL; Mono (9 h): 2.8%; Neu (9 h): 20.6%; PT (9 h): 16.2 s; Plat (9 h): 130.4 x10_4/uL; RBC (9 h): 607.8 x10_4/ul; Ret (9 h): 7.7%; WBC (9 h): 98.3 x10_2/uL; KIDNEY_L (9 h): 1 g; KIDNEY_R (9 h): 1 g; KIDNEY_TOTAL (9 h): 1.9 g; LIVER (9 h): 8.5 g; A/G (9 h): 1.3; ALP (9 h): 1182.4 IU/L; ALT (9 h): 35.4 IU/L; AST (9 h): 69.6 IU/L; BUN (9 h): 10.6 mg/dL; CRE (9 h): 0.2 mg/dL; Ca (9 h): 11.1 mg/dL; Cl (9 h): 105.4 meq/L; DBIL (9 h): 0 mg/dL; GLC (9 h): 174 mg/dL; IP (9 h): 9.9 mg/dL; K (9 h): 4.3 meq/L; LDH (9 h): 129.8 IU/L; Na (9 h): 141.6 meq/L; PL (9 h): 132.6 mg/dL; RALB (9 h): 3 g/dL; TBIL (9 h): 0.03 mg/dL; TC (9 h): 71.2 mg/dL; TG (9 h): 81.4 mg/dL; TP (9 h): 5.4 g/dL; gamma-GTP (9 h): 1.2 IU/L; TERMINAL_BW (24 h): 220.5 g; APTT (24 h): 21.8 s; Bas (24 h): 0%; Eos (24 h): 1%; Fbg (24 h): 309.4 mg/dL; Hb (24 h): 13 g/dL; Ht (24 h): 37.8%; Lym (24 h): 82%; MCH (24 h): 20.8 pg; MCHC (24 h): 34.4%; MCV (24 h): 60.5 fL; Mono (24 h): 2.6%; Neu (24 h): 13.6%; PT (24 h): 15.9 s; Plat (24 h): 114.8 x10_4/uL; RBC (24 h): 627.2 x10_4/ul; Ret (24 h): 6.2%; WBC (24 h): 91 x10_2/uL; KIDNEY_L (24 h): 1 g; KIDNEY_R (24 h): 1 g; KIDNEY_TOTAL (24 h): 2 g; LIVER (24 h): 9.9 g; A/G (24 h): 1.2; ALP (24 h): 1421.6 IU/L; ALT (24 h): 43 IU/L; AST (24 h): 72.2 IU/L; BUN (24 h): 17.8 mg/dL; CRE (24 h): 0.2 mg/dL; Ca (24 h): 11.1 mg/dL; Cl (24 h): 104.4 meq/L; DBIL (24 h): 0 mg/dL; GLC (24 h): 188.6 mg/dL; IP (24 h): 8.6 mg/dL; K (24 h): 4.3 meq/L; LDH (24 h): 156.6 IU/L; Na (24 h): 141.4 meq/L; PL (24 h): 153 mg/dL; RALB (24 h): 3.1 g/dL; TBIL (24 h): 0.018 mg/dL; TC (24 h): 75.8 mg/dL; TG (24 h): 119.4 mg/dL; TP (24 h): 5.5 g/dL; gamma-GTP (24 h): 1.2 IU/L
